Paper PMC9673142, “1,3-Diarylpyrazolyl-acylsulfonamides Target HadAB/BC Complex in Mycobacterium tuberculosis” (ACS Infectious Diseases, 2022)
In brackets after ≈: the same amount, converted by molar mass.

What was measured:
[1] = system: EthA mutant (C253R) of Mtb; settings: cited from earlier work
[2] = system: compound 1-resistant Mtb mutants (SRM59, Rv0637/hadC:K157R); type: cell-based, Mycobacterium tuberculosis
[3] = system: Mtb/pNIP40b-hadABC; assay: microbe, parasite or virus in culture; type: cell-based; settings: Mycobacterium tuberculosis, read-out: MIC Mtb/pNIP40b-hadABC

For CS(=O)(=O)NC(=O)CCc1cn(-c2ccc(Br)cc2)nc1-c1ccncc1 [Compound 1], the “change in MIC against EthA mutant (C253R)” value [1] is listed as “no change”, the “Compound 1 MIC, SRM59-1” value [2] is listed as 50 to 100 µM and the “Compound 1 MIC, SRM59-2” value [2] is listed as 50 to 100 µM. For the same molecule, the “Compound 1 MIC, SRM59-3” value [2] was 50 to 100 µM.

For O=c1[nH]nc(CCc2cn(-c3ccc(Br)cc3)nc2-c2ccc(Cl)cc2)o1 [Compound 12], the MIC [3] was 12.5 µM (≈ 5.57 µg/mL).

With CS(=O)(=O)NC(=O)NCc1cn(-c2ccc(C(F)(F)F)nc2)nc1-c1ccncc1 [Compound 11] the MIC [3] was over 40 µM.

Work on CS(=O)(=O)c1nnc(Cc2cn(-c3ccc(Cl)cc3)nc2-c2ccncc2)o1 [Compound 13] yielded an MIC [3] of 1.9 µM (≈ 0.79 µg/mL).

In the case of CC(=O)Nc1ccc(/C=N/NC(N)=S)cc1 [TAC, thioacetazone, reference compound], the “resistance of EthA mutant (C253R)” value [1] is listed as 4–8 folds.

In the case of CS(=O)(=O)NC(=O)CCc1cn(-c2ccc(Cl)cc2)nc1-c1ccc(Cl)cc1 [Compound 2], the “change in MIC against EthA mutant (C253R)” value [1] is given as “no change” and the MIC [3] is given as 2.5 µM (≈ 1.1 µg/mL).

In the case of CC(C)CCOc1ccc(NC(=S)Nc2ccc(OCCC(C)C)cc2)cc1 [ISO, isoxyl, reference compound], the “resistance of EthA mutant (C253R)” value [1] is listed as 4–8 folds.

CCc1c(COC(=O)NS(C)(=O)=O)c(-c2ccc(Cl)cc2)nn1-c1ccc(Cl)cc1 [Compound 15] showed an MIC [3] of 7.8 µM (≈ 3.65 µg/mL).

O=C(O)CCc1cn(-c2ccc(Br)cc2)nc1-c1ccc(Cl)cc1 [Compound 10] gave an MIC [3] of 3 µM (≈ 1.22 µg/mL).
